# Measurements: EP4818156A1, “SQUARIC ACID COMPOUND, PHARMACEUTICALLY ACCEPTABLE SALT OR DEUTERATED COMPOUND THEREOF, PREPARATION METHOD THEREFOR AND USE THEREOF” (Shanghai Institute of Materia Medica, Chinese Academy of …, priority 2023, dated 2025)
# Experiment: Photostability under continuous 808 nm laser irradiation
# Assay type: physicochemical
# Conditions: aqueous solution, 808 nm laser at 108 mW/cm^2, 20 minutes
# Description: Indocyanine green (ICG), an FDA-approved near-infrared dye widely used clinically, was used as a control to evaluate the photostability of compound Ia (SQ 905). ICG was dissolved in water, and compound Ia (SQ 905) was dissolved in methanol. Over a period of 25 minutes, the methanol solution of compound Ia and the aqueous solution of ICG were continuously irradiated with an 808 nm laser at 108 mW/cm^2. During this period, the fluorescence intensity was recorded using a near-infrared II camera (MARS, Artemis Intelligent Imaging, Shanghai, China). Images were recorded every minute for the first 15 minutes, and every 5 minutes thereafter to monitor the fluorescence intensity. The fluorescence intensity of the region of interest (ROI) in the captured images was quantified using ImageJ software and compared with the initial fluorescence intensity to obtain the ratio of fluorescence intensity at each time point relative to the initial intensity. The photostability curve of compound Ia was plotted using GraphPad Prism 8.0.2 software.
# Accordingly, the photostability of compound Ia was evaluated in this example. The methanol solution of compound Ia and the aqueous solution of ICG were used for photostability testing.
structure (smiles),measurement,value
"CC1(C)C(/C=C/C=C/C=C/C=C2\N(CCCCS(=O)(=O)O)c3ccc4ccccc4c3C2(C)C)=[N+](CCCCS(=O)(=O)[O-])c2ccc3ccccc3c21 [ICG, Indocyanine green]",decrease of fluorescence intensity after continuous irradiation,83%
